Data on 18 compounds can be found in patent publication US9371331B2, “Modulators of methyl modifying enzymes, compositions and uses thereof” (Constellation Pharmaceuticals, Inc., priority 2012, dated 2016).

By IC50 is commonly meant the point on the concentration scale where inhibition reaches its midpoint.

The target of one assay is EZH2 (rPRC2) (Homo sapiens, UniProt Q15910). Briefly: EZH2 assay: rPRC2, biotinylated oligonucleosomes, 3H SAM methyl transfer (FlashPlate scintillation). The assay is classed as biochemical. The conditions noted are these: biotinylated oligonucleosome substrate. The method, then:
Assays were carried out by mixing rPRC2 together with biotinylated oligonucleosome substrates in the presence of the radio-labeled enzyme co-factor, S-adenosyl-1-methionine (^3H SAM) (Perkin Elmer) and monitoring the enzymatically mediated transfer of tritiated methyl groups from ^3H SAM to histone lysine residues. The amount of resulting tritiated methyl histone product was measured by first capturing the biotinylated oligonucleosomes in streptavidin (SAV) coated FlashPlates (Perkin Elmer), followed by a wash step to remove un-reacted ^3H SAM, and then counting on a TopCount NXT 384 well plate scintillation counter (Perkin Elmer). The final assay conditions for EZH2 were as follows: 50 mM Tris Buffer pH 8.5, 1 mM DTT, 69 μM Brij-35 detergent, 5.0 mM MgCl2, 0.1 mg/mL BSA, 0.2 μM ^3H SAM, 0.2 μM biotinylated oligonucleosomes, 3.6 μM H3K27 mc3 peptide and 2 nM EZH2.
A 12.5 μL volume of the HMT enzyme, H3K27me3 peptide and oligonucleosome substrate in assay buffer was added to each well of the assay plate using a Multidrop Combi (ThermoFisher). Compounds were pre-incubated with the enzyme for 20 min, followed by initiation of the methyltransferase reaction by addition of 12.5 μL of ^3H SAM in assay buffer (final volume=25 μL). The final concentrations of compounds ranged from a top default concentration of 80 μM down to 0.16 μM in ten 2-fold dilution steps. Reactions were carried out for 60 minutes and quenched with 20 μL per well of 1.96 mM SAH, 50 mM Tris pH 8.5, 200 mM EDTA. Stopped reactions were transferred to SAV coated Flashplates (Perkin Elmer), incubated for 120 min, washed with a plate washer, and then read on the TopCount NXT (1.0 min/well) to measure the amount of methyl histone product formed during the reaction.

For another assay, the target named is Y641N EZH2 (Homo sapiens, UniProt Q15910, Y641N). The assay is described as follows: Y641N EZH2 assay: as EZH2 assay, with reconstituted H3K27Me2 oligonucleosomes as substrate. The class given is biochemical.
The mark [1] stands for this setting: EZH2 IC50, wild-type EZH2 (rPRC2).
The mark [2] stands for this setting: Y641N EZH2 IC50, Y641N mutant EZH2, H3K27Me2 oligonucleosome substrate.
[3] abbreviates: wild-type EZH2 (rPRC2), read-out: EZH2 IC50.
Where [4] appears, read: Y641N mutant EZH2, H3K27Me2 oligonucleosome substrate, read-out: Y641N EZH2 IC50.

Where two headings read alike, the source gives them in different places.

Chain of Y641N EZH2 (Q15910 whole entry Y641N): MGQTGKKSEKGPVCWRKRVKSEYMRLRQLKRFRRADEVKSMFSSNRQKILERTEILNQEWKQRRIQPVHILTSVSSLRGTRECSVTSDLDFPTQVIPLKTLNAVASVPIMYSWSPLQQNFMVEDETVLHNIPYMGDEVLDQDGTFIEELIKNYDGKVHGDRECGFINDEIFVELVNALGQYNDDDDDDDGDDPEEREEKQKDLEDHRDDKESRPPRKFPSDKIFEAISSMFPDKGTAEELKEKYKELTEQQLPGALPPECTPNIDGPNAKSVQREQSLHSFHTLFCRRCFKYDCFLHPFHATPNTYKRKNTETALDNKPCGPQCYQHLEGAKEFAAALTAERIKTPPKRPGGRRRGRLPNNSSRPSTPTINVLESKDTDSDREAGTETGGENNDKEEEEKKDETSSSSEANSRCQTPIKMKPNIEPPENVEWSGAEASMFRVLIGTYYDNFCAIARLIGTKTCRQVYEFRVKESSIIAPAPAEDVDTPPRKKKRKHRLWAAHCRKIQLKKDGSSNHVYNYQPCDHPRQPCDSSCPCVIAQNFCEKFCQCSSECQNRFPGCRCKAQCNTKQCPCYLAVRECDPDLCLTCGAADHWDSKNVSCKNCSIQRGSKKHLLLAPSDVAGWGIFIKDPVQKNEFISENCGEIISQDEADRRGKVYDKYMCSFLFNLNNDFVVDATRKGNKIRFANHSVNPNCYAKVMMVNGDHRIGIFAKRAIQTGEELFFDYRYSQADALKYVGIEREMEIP
Chain of Y641N EZH2 (O75530 whole entry partner): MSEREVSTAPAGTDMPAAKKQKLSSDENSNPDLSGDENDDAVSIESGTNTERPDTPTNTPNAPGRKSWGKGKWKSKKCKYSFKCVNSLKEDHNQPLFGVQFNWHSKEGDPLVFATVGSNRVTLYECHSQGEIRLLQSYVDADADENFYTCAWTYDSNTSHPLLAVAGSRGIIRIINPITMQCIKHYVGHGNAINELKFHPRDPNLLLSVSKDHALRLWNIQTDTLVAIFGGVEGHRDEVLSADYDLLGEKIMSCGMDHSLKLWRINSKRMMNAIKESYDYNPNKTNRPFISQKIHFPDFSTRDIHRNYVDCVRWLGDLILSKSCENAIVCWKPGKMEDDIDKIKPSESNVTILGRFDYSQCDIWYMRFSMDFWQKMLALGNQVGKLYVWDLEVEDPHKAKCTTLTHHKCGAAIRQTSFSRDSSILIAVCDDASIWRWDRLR
Chain of Y641N EZH2 (Q15022 whole entry partner): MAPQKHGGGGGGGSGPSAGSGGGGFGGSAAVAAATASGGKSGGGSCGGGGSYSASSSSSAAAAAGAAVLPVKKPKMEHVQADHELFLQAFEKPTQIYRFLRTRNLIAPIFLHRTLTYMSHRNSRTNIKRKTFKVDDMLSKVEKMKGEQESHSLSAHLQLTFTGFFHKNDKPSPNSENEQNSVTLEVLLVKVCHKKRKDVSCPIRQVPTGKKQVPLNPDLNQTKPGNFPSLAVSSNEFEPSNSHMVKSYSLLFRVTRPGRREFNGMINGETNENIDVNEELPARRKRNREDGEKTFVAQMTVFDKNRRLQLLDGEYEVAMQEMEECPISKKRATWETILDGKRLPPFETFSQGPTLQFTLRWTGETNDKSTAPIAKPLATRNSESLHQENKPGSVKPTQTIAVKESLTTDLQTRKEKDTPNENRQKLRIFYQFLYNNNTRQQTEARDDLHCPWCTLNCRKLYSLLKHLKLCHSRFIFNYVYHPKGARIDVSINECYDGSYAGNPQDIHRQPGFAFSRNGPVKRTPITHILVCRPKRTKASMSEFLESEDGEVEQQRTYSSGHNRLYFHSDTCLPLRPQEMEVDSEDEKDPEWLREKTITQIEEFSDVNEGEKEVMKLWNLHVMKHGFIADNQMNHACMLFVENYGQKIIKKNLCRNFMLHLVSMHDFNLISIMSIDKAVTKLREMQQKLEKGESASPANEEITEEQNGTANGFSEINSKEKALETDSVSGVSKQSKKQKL
Chain of EZH2 (rPRC2) (Q15910 whole entry): as the sequence (Q15910 whole entry Y641N) above, with N641Y counted along it
Chain of EZH2 (rPRC2) (O75530 whole entry partner): as the sequence (O75530 whole entry partner) above
Chain of EZH2 (rPRC2) (Q15022 whole entry partner): as the sequence (Q15022 whole entry partner) above

As to `Cc1cc(C)c(CNC(=O)c2c(C)n(C(C)c3ccc(S(C)(=O)=O)cc3)c3ccccc23)c(=O)[nH]1` (racemic) [Compound 179, (±)-N-((4,6-dimethyl-2-oxo-1,2-dihydropyridin-3-yl)methyl)-2-methyl-1-(1-(4-(methylsulfonyl)phenyl)ethyl)-1H-indole-3-carboxamide], the IC50 on EZH2 (rPRC2) (setting [1]) was below 0.1 µM; against Y641N EZH2 (setting [2]), 0.1 to 1 µM.

For `CCC(C)n1c(C)c(C(=O)NCc2c(C)cc(C)[nH]c2=O)c2cccnc21` (racemic) [Compound 185, (±)-1-(sec-butyl)-N-((4,6-dimethyl-2-oxo-1,2-dihydropyridin-3-yl)methyl)-2-methyl-1H-pyrrolo[2,3-b]pyridine-3-carboxamide], the concentration for half-maximal inhibition (IC50) fell in the range of 0.1 to 1 µM at EZH2 (rPRC2) (setting [1]) and 1 to 10 µM on Y641N EZH2 (setting [2]).

For `COc1ccccc1C(C)n1c(C)c(C(=O)NCc2c(C)cc(C)[nH]c2=O)c2ccccc21` (racemic) [Compound 186, (±)-N-((4,6-dimethyl-2-oxo-1,2-dihydropyridin-3-yl)methyl)-1-(1-(2-methoxyphenyl)ethyl)-2-methyl-1H-indole-3-carboxamide], the IC50 on EZH2 (rPRC2) (setting [1]) and against Y641N EZH2 (setting [2]) was 0.1 to 1 µM in each case.

`Cc1cc(C)c(CNC(=O)c2c(C)n(C(C)CCO)c3ncccc23)c(=O)[nH]1` (racemic) [Compound 193, (±)-N-((4,6-dimethyl-2-oxo-1,2-dihydropyridin-3-yl)methyl)-1-(4-hydroxybutan-2-yl)-2-methyl-1H-pyrrolo[2,3-b]pyridine-3-carboxamide]: the IC50 lay within 0.1 to 1 µM at EZH2 (rPRC2) (setting [1]) and 1 to 10 µM at Y641N EZH2 (setting [2]).

`Cc1cc(C)c(COC(=O)c2c(C)n(C3CCOC3)c3ncccc23)c(=O)[nH]1` (racemic) [Compound 202, (±)-(4,6-dimethyl-2-oxo-1,2-dihydropyridin-3-yl)methyl 2-methyl-1-(tetrahydrofuran-3-yl)-1H-pyrrolo[2,3-b]pyridine-3-carboxylate]: the half-maximal inhibitory concentration (IC50) at EZH2 (rPRC2) (setting [1]) lay within 0.1 to 1 µM; on Y641N EZH2 (setting [2]) it was 1 to 10 µM.

As for `Cc1cc(C)c(CNC(=O)c2c(C)n(C(C)c3cccc(-c4ccncn4)c3)c3ccccc23)c(=O)[nH]1` (racemic) [Compound 205, (±)-N-((4,6-dimethyl-2-oxo-1,2-dihydropyridin-3-yl)methyl)-2-methyl-1-(1-(3-(pyrimidin-4-yl)phenyl)ethyl)-1H-indole-3-carboxamide], the IC50 at EZH2 (rPRC2) (setting [1]) and on Y641N EZH2 (setting [2]) was 0.1 to 1 µM in each case.

Regarding `COc1cccc(C(C)n2c(C)c(C(=O)NCc3c(C)cc(C)[nH]c3=O)c3cccnc32)c1` (racemic) [Compound 206, (±)-N-((4,6-dimethyl-2-oxo-1,2-dihydropyridin-3-yl)methyl)-1-(1-(3-methoxyphenyl)ethyl)-2-methyl-1H-pyrrolo[2,3-b]pyridine-3-carboxamide], the IC50 on EZH2 (rPRC2) (setting [1]) is 0.1 to 1 µM; on Y641N EZH2 (setting [2]), 1 to 10 µM.

As to `COc1cc(C)[nH]c(=O)c1CNC(=O)c1c(C)n(C(C)C#N)c2ncccc12` (racemic) [Compound 214, (±)-1-(1-cyanoethyl)-N-((4-methoxy-6-methyl-2-oxo-1,2-dihydropyridin-3-yl)methyl)-2-methyl-1H-pyrrolo[2,3-b]pyridine-3-carboxamide], the IC50 fell in the range of 0.1 to 1 µM against EZH2 (rPRC2) (setting [1]) and 1 to 10 µM against Y641N EZH2 (setting [2]).

As to `CCCc1cc(C)[nH]c(=O)c1CNC(=O)c1c(C)n(C(C)COC)c2ncccc12` (racemic) [Compound 216, (±)-1-(1-methoxypropan-2-yl)-2-methyl-N-((6-methyl-2-oxo-4-propyl-1,2-dihydropyridin-3-yl)methyl)-1H-pyrrolo[2,3-b]pyridine-3-carboxamide], the concentration for half-maximal inhibition (IC50) on EZH2 (rPRC2) (setting [1]) lay in the range of 0.1 to 1 µM; against Y641N EZH2 (setting [2]), 1 to 10 µM.

Take `CCC(c1ccccc1)n1c(C)c(C(=O)NCc2c(C)cc(C)[nH]c2=O)c2cccnc21` (racemic) [Compound 220, (±)-N-((4,6-dimethyl-2-oxo-1,2-dihydropyridin-3-yl)methyl)-2-methyl-1-(1-phenylpropyl)-1H-pyrrolo[2,3-b]pyridine-3-carboxamide]: the IC50 against EZH2 (rPRC2) (setting [1]) is below 0.1 µM; at Y641N EZH2 (setting [2]), 0.1 to 1 µM.

For the compound `Cc1cc(C)c(CNC(=O)c2c(C)n(C(C)Cn3cccn3)c3ncccc23)c(=O)[nH]1` (racemic) [Compound 221, (±)-1-(1-(1H-pyrazol-1-yl)propan-2-yl)-N-((4,6-dimethyl-2-oxo-1,2-dihydropyridin-3-yl)methyl)-2-methyl-1H-pyrrolo[2,3-b]pyridine-3-carboxamide], the concentration for half-maximal inhibition (IC50) on EZH2 (rPRC2) (setting [3]) fell in the range of 0.1 to 1 µM; at Y641N EZH2 (setting [4]), 1 to 10 µM.

Regarding `COc1nccc(C(C)n2c(C)c(C(=O)NCc3c(OC)cc(C)[nH]c3=O)c3cccnc32)n1` (racemic) [Compound 232, (±)-N-((4-methoxy-6-methyl-2-oxo-1,2-dihydropyridin-3-yl)methyl)-1-(1-(2-methoxypyrimidin-4-yl)ethyl)-2-methyl-1H-pyrrolo[2,3-b]pyridine-3-carboxamide], the IC50 against EZH2 (rPRC2) (setting [1]) fell in the range of 0.1 to 1 µM; against Y641N EZH2 (setting [2]), 1 to 10 µM.

Turning to `COc1nccc(C(C)n2c(C)c(C(=O)NCc3c(C)cc(C)[nH]c3=O)c3cccnc32)n1` (racemic) [Compound 233, (±)-N-((4,6-dimethyl-2-oxo-1,2-dihydropyridin-3-yl)methyl)-1-(1-(2-methoxypyrimidin-4-yl)ethyl)-2-methyl-1H-pyrrolo[2,3-b]pyridine-3-carboxamide], the half-maximal inhibitory concentration (IC50) at EZH2 (rPRC2) (setting [1]) was 0.1 to 1 µM; on Y641N EZH2 (setting [2]) it was 1 to 10 µM.

Consider `CCOc1cc(C)[nH]c(=O)c1CNC(=O)c1c(C)n(C(C)COC)c2ncccc12` (racemic) [Compound 235, (±)-N-((4-ethoxy-6-methyl-2-oxo-1,2-dihydropyridin-3-yl)methyl)-1-(1-methoxypropan-2-yl)-2-methyl-1H-pyrrolo[2,3-b]pyridine-3-carboxamide], for which the half-inhibitory concentration (IC50) at EZH2 (rPRC2) (setting [1]) lay within 0.1 to 1 µM; against Y641N EZH2 (setting [2]) it was 1 to 10 µM.

Turning to `Cc1cc(C)c(CNC(=O)c2c(C)n(C(C)CN3CCOCC3)c3ncccc23)c(=O)[nH]1` (racemic) [Compound 237, (±)-N-((4,6-dimethyl-2-oxo-1,2-dihydropyridin-3-yl)methyl)-2-methyl-1-(1-morpholinopropan-2-yl)-1H-pyrrolo[2,3-b]pyridine-3-carboxamide], the half-inhibitory concentration (IC50) is 0.1 to 1 µM on EZH2 (rPRC2) (setting [1]) and 1 to 10 µM at Y641N EZH2 (setting [2]).

`Cc1cc(C)c(CNC(=O)c2c(C)n(C(C)Cn3ccccc3=O)c3ncccc23)c(=O)[nH]1` (racemic) [Compound 249, (±)-N-((4,6-dimethyl-2-oxo-1,2-dihydropyridin-3-yl)methyl)-2-methyl-1-(1-(2-oxopyridin-1(2H)-yl)propan-2-yl)-1H-pyrrolo[2,3-b]pyridine-3-carboxamide]: the values for the 50% inhibitory concentration (IC50) on EZH2 (rPRC2) (setting [3]) and at Y641N EZH2 (setting [4]) were 0.1 to 1 µM and 1 to 10 µM, respectively.

For the compound `COc1cc(C)[nH]c(=O)c1CNC(=O)c1c(C)n(C(C)COc2ccccn2)c2ncccc12` (racemic) [Compound 251, (±)-N-((4-methoxy-6-methyl-2-oxo-1,2-dihydropyridin-3-yl)methyl)-2-methyl-1-(1-(pyridine-2-yloxy)propan-2-yl)-1H-pyrrolo[2,3-b]pyridine-3-carboxamide], the concentration for half-maximal inhibition (IC50) on EZH2 (rPRC2) (setting [3]) and at Y641N EZH2 (setting [4]) was 0.1 to 1 µM throughout.

Consider `CCOc1cc(C)[nH]c(=O)c1CNC(=O)c1c(C)n(C(C)c2ccccc2)c2cnccc12` (racemic) [Compound 255, (±)-N-((4-ethoxy-6-methyl-2-oxo-1,2-dihydropyridin-3-yl)methyl)-2-methyl-1-(1-phenylethyl)-1H-pyrrolo[2,3-c]pyridine-3-carboxamide], for which the values for the IC50 against EZH2 (rPRC2) (setting [1]) and against Y641N EZH2 (setting [2]) were below 0.1 µM and 1 to 10 µM, respectively.
